The values that follow are results of earlier work, collected in patent publication US20200171007A1, “Methods of Treating Hepatorenal Syndrome and Hepatic Encephalopathy with Thromboxane-A2 Receptor Antagonists” (Cumberland Pharmaceuticals Inc., priority 2010, published 2020).

The subject of one data set is patients with cirrhosis. Conditions: patients with cirrhosis / hepatorenal syndrome.
Data set [1] concerns patients with cirrhosis, ascites, and hepatorenal syndrome. The following applies: case series.
The test system of data set [2] is patients with hepatorenal syndrome.
For data set [3], the system named is patients with type 1 hepatorenal syndrome.
Data set [4] concerns patients with hepatorenal syndrome. Conditions: intravenous, twelve patients.
For data set [5], the system named is patients with type 1 hepatorenal syndrome. Conditions: nonpressor doses, with albumin.
The subject of data set [6] is patients with hepatorenal syndrome. The following applies: five studies.
For data set [7], the system named is patients with type 1 hepatorenal syndrome. The following applies: type 1 hepatorenal syndrome (octapressin); short-term use (ornipressin).
Data set [8] concerns patients with hepatorenal syndrome. Conditions: ornipressin and albumin.
[9] abbreviates: includes 2 patients who received liver transplantation.

Where a SMILES comes first, the peptide text is derived from it. Bridges are numbered along the chain shown (N, C = ends). [ ]: non-standard residue; d: D form.

With `Cc1ccc(N(CC2=NCCN2)c2cccc(O)c2)cc1` [phentolamine], the “effect on blood pressure and renal function” value in the data set on patients with cirrhosis is on record as “Poor results”.

For the compound `CC(C)C[C@@H]1NC(=O)[C@@H](C(C)C)NC(=O)[C@@H]2CCCN2C(=O)[C@@H](CC(=O)O)NC(=O)[C@@H](Cc2c[nH]c3ccccc23)NC1=O` [BQ123] (cyclo(L[dW][dD]P[dV])), the “patients with improvement in the glomerular filtration rate” value in data set [1] is given as 3 patients.

As for `NCCCC[C@H](NC(=O)[C@@H]1CCCN1C(=O)[C@@H]1CSSC[C@H](NC(=O)CNC(=O)CNC(=O)CN)C(=O)N[C@@H](Cc2ccc(O)cc2)C(=O)N[C@@H](Cc2ccccc2)C(=O)N[C@@H](CCC(N)=O)C(=O)N[C@@H](CC(N)=O)C(=O)N1)C(=O)NCC(N)=O` [terlipressin] (H-GGGCYFQNCPKG-NH2; disulfide 4-9), in [2] (human, in vivo), the adverse ischemic effects result was “No adverse ischemic effects were reported”. For the same compound, in [2] (terlipressin and albumin for 5-15 days, 9 patients treated), the “Reversal of hepatorenal syndrome” value is 7 of 9. In [3] (in conjunction with albumin), the “recurrent hepatorenal syndrome after treatment discontinuation” value was below 15%. Moreover, the “improvement in glomerular filtration rate and reduction in serum creatinine levels to below 1.5 mg/dL, share of patients” value in data set [3] (in conjunction with albumin, type 1 hepatorenal syndrome) is on record as 60-75%. Moreover, the Ischemic complications in [3] (in vivo) is reported as below 5%.

With `CNCC(=O)N[C@@H](CCCN=C(N)N)C(=O)N[C@H](C(=O)N[C@@H](Cc1ccc(O)cc1)C(=O)N[C@H](C(=O)N[C@@H](Cc1cnc[nH]1)C(=O)N1CCC[C@H]1C(=O)N[C@@H](C)C(=O)O)C(C)C)C(C)C` [Saralasin], the “effect on blood pressure and renal function” value in the data set on patients with cirrhosis was “worsening hypotension and deterioration in renal function”.

On to `CC(=O)N[C@@H](CS)C(=O)O` [NAC, N-acetylcysteine], for which the adverse effects entry in [4] is listed as “without any adverse effects”. In addition, in [4] (setting [9]), the “survival rate at 1 month” value was 67% and the “survival rate at 3 months” value was 58%.

Turning to `NCCc1ccc(O)c(O)c1` [dopamine], the “improvement in renal function” value in [5] was “none of the patients treated with dopamine showed any improvement in renal function”. Further, in data set [6], the “changes in renal plasma flow, glomerular filtration rate, or urine output” value is on record as “none have reported significant changes”.

As to `NCCC[C@H](NC(=O)[C@@H]1CCCN1C(=O)[C@@H]1CSSC[C@H](N)C(=O)N[C@@H](Cc2ccc(O)cc2)C(=O)N[C@@H](Cc2ccccc2)C(=O)N[C@@H](CCC(N)=O)C(=O)N[C@@H](CC(N)=O)C(=O)N1)C(=O)NCC(N)=O` [ornipressin], the “Renal plasma flow and glomerular filtration rate” value in data set [7] was “significant increase”. Besides, the “patients in whom treatment had to be discontinued because of complications (ischemic colitis, tongue ischemia, glossitis)” value in data set [8] (8 patients, after fewer than 9 days) was 4 patients. Besides, in [8] (remaining 4 patients treated for 15 days), the “improvement in renal plasma flow and glomerular filtration rate” value is on record as “significant”.
